In patent US20250282746A1, “HALOGEN-SUBSTITUTED ISOINDOLINE COMPOUND AND USE THEREOF” (CHENGDU FENDI PHARMACEUTICAL CO., LTD., priority 2022, published 2025):
“Also recorded” adds a separate entry of the source.

Key:
[1] = target: T1, hERG potassium channel (Homo sapiens, UniProt Q12809); test: hERG inhibition assay (automated patch clamp, HEK293); format: cell-based; details: 3 μM, HEK293 cells, QPatch
T1 construct: expressed in transfected cells; host or cells: HEK293 cells
Text: The rapidly activating potassium channel encoded by human ether-a-go-go-related gene (hERG) is an important ion channel involved in the formation of cardiac action potential phase 3 repolarization. Blocking of the hERG channel by drugs can lead to the prolongation of cardiac repolarization and thus a prolonged QT interval in the electrocardiogram, known as long QT syndrome. Drug-induced delayed ventricular repolarization may in some cases trigger fatal arrhythmia-torsade de pointes-type ventricular tachycardia.
This assay was used to measure the effect of compounds on the hERG potassium channel clones expressed in human embryonic kidney (HEK293) cells. The assay procedures are as follows: the cells were transferred into a HEPES-buffered saline in glass-lined 96-well plates and exposed to an appropriate amount of test compound or control solution at various concentrations for 3 min. The test compounds were diluted in 0.3% DMSO.

[2] = system: MV-4-11-Luc xenograft; test: Efficacy in acute myeloid leukemia MV-4-11-luc xenograft mouse model; format: in vivo; details: for T/C (%) Day 3 / T/C (%) Day 7 / T/C (%) Day 10 / T/C (%) Day 14: 10 mg/kg orally twice daily, NSG mice
Text: In an in vivo efficacy study, female immunocompromised NSG mice aged 6 to 8 weeks were used and the experimental procedures started after the animals were acclimatized in the experimental environment for 7 days. The animals were housed in SPF animal rooms in individually ventilated cages (IVCs) each containing 6 mice. Human acute myeloid leukemia MV-4-11 cells expressing luciferase (MV-4-11-luc) were grafted into mice by tail vein injection (5×10^6 cells/mouse). Seven days after the cell grafting, the mice were subjected to imaging on the IVIS Lumina III small animal imaging system for grouping and administration, and tumor-bearing mice were randomized to the vehicle control group or treatment groups (6 mice/group). The compound (10 mg/kg, twice daily) was administered to the animals in each treatment group by oral gavage. The body weight was measured daily, while mean luminescence was measured after the start of treatment with the compounds or vehicle.
Indicators: The indicators were to investigate whether the tumor growth was inhibited or delayed or the tumor was cured. The tumor size was measured twice weekly using the IVIS Lumina III small animal imaging system. The tumor signals were determined by exposure photons per second. The anti-tumor efficacy of the compounds was evaluated by the tumor proliferation rate T/C (%). T/C %=TRTV/CRTV×100% (TRTV: the RTV of the treatment group; CRTV: the RTV of negative control group; RTV=Vt/V0, where V0 is the tumor signal measured at the time of grouping and administration (i.e., day 0), and Vt is the tumor signal at every measurement). According to the guidelines of the Center for Drug Evaluation, NMPA, a T/C (%) of >40% denotes the absence of efficacy, while a T/C of <40% with P<0.05 denotes the presence of efficacy.

[3] = system: NCI-H929 cells; test: Antiproliferative effect alone and in combination with dexamethasone against NCI-H929 cells; format: cell-based; details: 72 h, read-out: IC50
Protocol: (§1) MOLM-13 cells in the logarithmic growth phase were diluted in a medium RPMI+[…], and NCI-H929 cells were diluted in a medium RPMI+10% FBS. The cells were plated at 4,000 cells/well in 96-well whole black plates (WHB) with 50 μL/well. After plating, the plates were incubated in an incubator at 5% CO2 and 37° C. for 24 h before the compounds were added. The compounds were prepared into a 10 mM stock solution in DMSO and diluted in a culture medium to the desired concentrations (a final DMSO concentration of 0.2%). 50 μL of the compound dilutions at final concentrations of 10,000, 3,333.33, 1,111.11, 370.37, 123.46, 41.15, 13.72, 4.57, 1.52, and 0 nM were added to the 96-well plates containing the cells, that is, each compound was serially diluted to 10 concentrations in duplicate. The plates were incubated at 5% CO2 and 37° C. for 72 h. When pharmaceutical partners were used, the concentrations of azacitidine and dexamethasone were kept at 200 nM and 500 nM respectively, and the compounds were serially three-fold diluted from 10,000 nM. After the incubation was complete, the plates were equilibrated at room temperature for 30 min. CellTiter-Glo® Reagent (Promega G7573) was added at 100 μL/well. The plates were shaken for 12 min on a microplate shaker. The luminescence value was measured at room temperature by the GloMax navigator (Promega GM2010). The IC50 values were calculated using the GraphPad Prism 7 software with the 0 nM control group as 0% inhibition.

[4] = system: MOLM-13 cells; test: Antiproliferative effect alone and in combination with azacitidine against MOLM-13 cells; format: cell-based; details: MOLM-13 cells, 72 h
Protocol: as §1

[5] = system: MV-4-11 cells; test: Apoptotic effect on AML cells (annexin/PI flow cytometry); format: cell-based, human; details: 1 μM and 100 nM
Protocol: MV-4-11 cells in the logarithmic growth phase were diluted in a growth medium and plated at 600,000 cells/well in 6-well plates with 2 mL/well and the compounds were added. The cells were collected, washed twice with pre-cooled PBS, and resuspended in 100 μL of 1× annexin-binding buffer. 5 μL of FITC and 1 μL of 100 µg/mL PI were added. The cells were incubated at room temperature in the dark for 15 min and transferred on ice, and 400 μL of 1× annexin-binding buffer was added. The mixture was gently mixed and subjected to flow cytometry.

[6] = target: T2, GSPT1 protein (Homo sapiens, UniProt P15170); test: Degradation of GSPT1 protein in NB-4 cells (Western blot); format: cell-based; details: NB-4 cells, compound 1 μM, 6 h; read-out: GSPT1 degradation
T2 construct: The whole cell lysate was prepared using a RIPA lysis buffer; endogenous in cells; host or cells: NB-4 cells
In short: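 GSPT1 levels were read by Western blot (4-20% SDS-PAGE, PVDF, overnight primary antibody at 4 °C) on lysates of NB-4 cells.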

[7] = system: MV-4-11 cells; test: Antiproliferative activity against MV-4-11 cells (CellTiter-Glo, 72 h); format: cell-based; details: Homo sapiens, MV4-11; MV-4-11 cells, 72 h; read-out: Antiproliferative activity IC50
In short: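 MV-4-11 cells in RPMI + 10% FBS plated at 5,000 cells/well and pre-incubated 24 h at 37 °C, 5% CO2. Compounds were then added (final DMSO 0.2%) and cells incubated 72 h. Viability was read by CellTiter-Glo luminescence after 30 min equilibration at room temperature.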

[8] = system: U937 cells; test: Antiproliferative activity against various tumor cells: U937; format: cell-based; details: Homo sapiens, U-937; U937 cells, 72 h; read-out: Antiproliferative activity IC50 U937
Protocol: (§2) U937, NCI-H929, AML-2, and MOLM-13 cells in the logarithmic growth phase were diluted in media RPMI+10% FBS, RPMI+10% FBS, MEMα+20% FBS, RPMI+20% FBS, respectively, and plated at 4,000 cells/well in 96-well whole black plates (WHB) with 50 μL/well. After plating, the plates were incubated in an incubator at 5% CO2 and 37° C. for 24 h before the compounds were added. The compounds were prepared into a 10 mM stock solution in DMSO and diluted in a culture medium to the desired concentrations (a final DMSO concentration of 0.2%). […] The plates were incubated at 5% CO2 and 37° C. for 72 h. After the incubation was complete, the plates were equilibrated at room temperature for 30 min. CellTiter-Glo® Reagent (Promega G7573) was added at 100 μL/well. The plates were shaken for 12 min on a microplate shaker. The luminescence value was measured at room temperature by the GloMax navigator (Promega GM2010).

[9] = system: MOLM-13 cells; test: Antiproliferative activity against various tumor cells: MOLM-13; format: cell-based; details: Homo sapiens; MOLM-13 cells, 72 h; read-out: Antiproliferative activity IC50 MOLM-13
Protocol: as §2

[10] = system: NCI-H929 cells; test: Antiproliferative activity against various tumor cells: NCI-H929; format: cell-based; details: Homo sapiens; NCI-H929 cells, 72 h; read-out: Antiproliferative activity IC50 NCI-H929
Protocol: as §2

[11] = system: AML-2 cells; test: Antiproliferative activity against various tumor cells: AML-2; format: cell-based; details: AML-2 cells, 72 h; read-out: Antiproliferative activity IC50 AML-2
Protocol: as §2

T1 sequence (Q12809 whole entry): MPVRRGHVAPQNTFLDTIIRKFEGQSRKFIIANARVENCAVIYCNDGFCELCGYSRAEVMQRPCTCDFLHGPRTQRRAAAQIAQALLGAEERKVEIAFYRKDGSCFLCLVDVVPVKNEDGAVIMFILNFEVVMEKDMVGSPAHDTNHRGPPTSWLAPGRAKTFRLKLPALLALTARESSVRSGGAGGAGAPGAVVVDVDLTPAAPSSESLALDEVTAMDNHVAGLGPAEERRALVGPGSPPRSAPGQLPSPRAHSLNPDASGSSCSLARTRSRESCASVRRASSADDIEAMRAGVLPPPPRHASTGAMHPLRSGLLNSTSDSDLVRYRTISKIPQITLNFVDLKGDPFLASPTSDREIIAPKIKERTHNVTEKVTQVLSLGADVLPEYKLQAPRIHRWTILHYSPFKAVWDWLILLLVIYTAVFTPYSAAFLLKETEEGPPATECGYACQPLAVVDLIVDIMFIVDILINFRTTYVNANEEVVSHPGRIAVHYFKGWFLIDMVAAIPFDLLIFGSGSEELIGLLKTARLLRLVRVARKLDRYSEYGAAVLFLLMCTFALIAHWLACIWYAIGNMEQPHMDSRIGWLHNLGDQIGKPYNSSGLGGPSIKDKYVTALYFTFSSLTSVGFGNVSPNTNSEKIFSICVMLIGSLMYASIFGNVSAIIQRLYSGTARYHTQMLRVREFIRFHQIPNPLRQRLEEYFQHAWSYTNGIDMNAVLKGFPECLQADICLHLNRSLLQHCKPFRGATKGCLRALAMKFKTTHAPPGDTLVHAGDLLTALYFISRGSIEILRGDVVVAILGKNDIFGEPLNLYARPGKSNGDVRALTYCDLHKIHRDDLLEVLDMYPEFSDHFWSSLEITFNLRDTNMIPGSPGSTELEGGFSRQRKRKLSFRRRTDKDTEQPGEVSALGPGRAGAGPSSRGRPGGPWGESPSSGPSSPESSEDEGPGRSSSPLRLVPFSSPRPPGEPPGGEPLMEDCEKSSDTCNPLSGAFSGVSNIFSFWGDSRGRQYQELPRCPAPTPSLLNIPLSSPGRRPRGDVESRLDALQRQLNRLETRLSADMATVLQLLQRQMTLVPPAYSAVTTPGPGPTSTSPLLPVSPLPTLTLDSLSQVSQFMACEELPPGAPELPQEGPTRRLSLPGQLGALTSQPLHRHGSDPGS
T2 sequence (P15170 whole entry): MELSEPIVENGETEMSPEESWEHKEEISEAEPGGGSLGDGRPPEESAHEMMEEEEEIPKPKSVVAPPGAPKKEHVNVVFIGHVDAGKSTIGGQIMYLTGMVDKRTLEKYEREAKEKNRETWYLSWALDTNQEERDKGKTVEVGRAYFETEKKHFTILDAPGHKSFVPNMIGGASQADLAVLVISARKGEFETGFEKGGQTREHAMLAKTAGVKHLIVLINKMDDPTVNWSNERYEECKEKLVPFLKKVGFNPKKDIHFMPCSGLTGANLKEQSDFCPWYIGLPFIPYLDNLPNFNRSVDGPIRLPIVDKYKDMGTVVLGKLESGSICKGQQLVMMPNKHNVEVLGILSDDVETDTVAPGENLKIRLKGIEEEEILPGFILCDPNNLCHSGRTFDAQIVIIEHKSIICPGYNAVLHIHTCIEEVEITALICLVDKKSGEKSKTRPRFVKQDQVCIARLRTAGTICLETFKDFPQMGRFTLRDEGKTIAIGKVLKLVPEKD

SMILES	hERG inhibition rate [1]	T/C (%) Day 3 [2]	T/C (%) Day 7 [2]	T/C (%) Day 10 [2]	T/C (%) Day 14 [2]	tumor inhibitory effect in mouse xenograft model ([2]; oral administration, 10 mg/kg twice daily, within 14 days, 10 mg/kg)	IC50 ([3]; compound alone)	IC50 ([3]; in combination with 500 nM dexamethasone)	IC50 ([4]; compound alone)	IC50 ([4]; in combination with 200 nM azacitidine)	apoptotic effect on MV-4-11 cells ([5]; treated for 7 h, 10 µM)	apoptotic effect on MV-4-11 cells ([5]; treated for 16 h)	inhibition at 1 µM [6]	IC50 [7]	IC50 [8]	IC50 [9]	IC50 [10]	IC50 [11]
O=C1CCC(N2Cc3cc(CNC(=O)C(F)(F)c4ccc(Cl)cc4)ccc3C2=O)C(=O)N1 (centres unmarked) [CC-90009, reference compound]	66%	100.80%	133.08%	127.05%	132.90%	no tumor inhibitory effects; also recorded: no tumor inhibitory activity	3200 nM	77.3 nM	1420 nM	43.9 nM								
O=C1CCC(N2Cc3c(ccc(CNC(=O)c4cc5cc(F)ccc5o4)c3F)C2=O)C(=O)N1 (centres unmarked) [FDAB-46]											no apoptotic effect	apoptosis was induced	> 80%	1 to 10 nM	10 to 100 nM	100 to 1000 nM	1 to 10 nM	100 to 1000 nM
Cc1ccc(C(=O)NCc2ccc3c(c2F)CN(C2CCC(=O)NC2=O)C3=O)cc1 (centres unmarked) [FDAB-65]	11%	4.58%	1.40%	1.01%	0.78%						no apoptotic effect	apoptosis was induced	> 80%	10 to 100 nM	10 to 100 nM	100 to 1000 nM	1 to 10 nM	100 to 1000 nM
Cc1ccc(C(=O)NCc2ccc3c(c2F)CN(C2CCC(=O)NC2=O)C3=O)cc1F (centres unmarked) [FDAB-120]	13%	6.69%	1.58%	2.00%	2.12%								> 80%	10 to 100 nM				
